Results reported in patent publication US8664234B2, “Dihydrobenzoquinazolinone M1 receptor positive allosteric modulators” (Merck Sharp & Dohme Corp., priority 2010, dated 2014).

Molecular target: T1, acetylcholine muscarinic M1 receptor (CHOnfat/hM1 cells) (Homo sapiens, UniProt P11229)
T1 construct: expressed in transfected cells; host or cells: CHOnfat cells (CHO; also called CHOK1/hM1)
T1 sequence (P11229 1-460): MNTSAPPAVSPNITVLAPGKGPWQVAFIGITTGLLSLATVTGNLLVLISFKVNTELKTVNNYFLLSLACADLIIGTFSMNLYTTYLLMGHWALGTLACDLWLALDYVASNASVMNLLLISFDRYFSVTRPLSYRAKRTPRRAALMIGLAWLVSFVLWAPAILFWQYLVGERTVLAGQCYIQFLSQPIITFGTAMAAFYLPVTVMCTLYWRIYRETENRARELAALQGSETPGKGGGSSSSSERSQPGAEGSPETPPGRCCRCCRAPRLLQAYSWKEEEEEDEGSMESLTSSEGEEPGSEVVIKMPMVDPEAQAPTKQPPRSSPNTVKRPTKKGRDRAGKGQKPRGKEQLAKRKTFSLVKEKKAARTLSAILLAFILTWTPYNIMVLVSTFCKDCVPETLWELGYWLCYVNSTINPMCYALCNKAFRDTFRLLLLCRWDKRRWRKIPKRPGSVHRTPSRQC
Assay: FLIPR intracellular calcium assay for M1 positive allosteric modulator activity (acetylcholine EC20, 3 nM)
Format: cell-based
Conditions: 4 min preincubation, then EC20 acetylcholine (3 nM final), FLIPR Ca2+ readout, read-out: IP Value (inflection point)
Experimental: The assay studies the effect of one or several concentrations of test compounds on basal or acetylcholine-stimulated. Ca^2+ levels using FLJPR.
Compounds are prepared and subjected to a preincubation period of 4 min. Thereafter, a single EC20 concentration of acetylcholine is added to each well (3 nM final). The intracellular Ca^2+ level of each sample is measured and compared to an acetylcholine control to determine any modulatory activity.
Cells: CHOnfat/hM1, hM2, hM3 or hM4 cells are plated 24 hr before the assay at a density of 18,000 cells/well (100 μL) in a 384 well plate. CHOnfat/hM1 and CHOnfat/hM3 Growth Medium: 90% DMEM (Hi Glucose); 10% HI FBS; 2 mM L-glutamine; 0.1 mM NEAA; Pen-Strep; and 1 mg/ml Geneticin, are added. For M2Gqi5CHOnfat and M4Gqi5CHOnfat cells, an additional 600 ug/ml hygromycin is added.
Equipment: 384 well plate, 120 μL addition plate; 96-well Whatman 2 ml Uniplate Incubator, 37° C., 5% CO2; Skatron EMBLA-384 Plate Washer; Multimek Pipetting System; Genesis Freedom 200 System; Mosquito System; Temo Nanoliter Pipetting System; and FLIPR^384 Fluorometric Imaging Plate Reader System are used.
Buffers. Assay Buffer: Hanks Balanced Salt Solution, with 20 mM Hepes, 2.5 mM Probenecid (Sigma P-8761) first dissolved in 1 N NaOH, 1% Bovine Serum Albumin (Sigma A-9647). Dye Loading Buffer: Assay Buffer plus 1% Fetal Bovine Serum and Fluo-4AM/Pluronic Acid Mixture. 2 mM Fluo-4AM ester stock in DMSO (Molecular Probes F-14202) Concentration of 2 μM in buffer for a final concentration of 1 μM in Assay. 20% Pluronic Acid Solution stock, with concentration of 0.04% in Buffer, 0.02% in Assay.
65 μL of 2 mM Fluo-4AM are mixed with 130 μL of 20% Pluronic Acid. The resulting solution and 650 μL FBS is added to the assay buffer for a total volume of 65 mL. Positive Controls: 4-Br-A23187: 10 mM in DMSO; final concentration 10 μM. Acetylcholine: 10 mM in water, working stock at both 20 μM and 30 μM in assay buffer, final concentration of 10 μM. This is used to check the maximum stimulation of the CHOK1/hM1 cells, 20 μM (2×) acetylcholine is added in the preincubation part of the assay, and the 30 μM (3×) stock is added in the second part. (EC20) Acetylcholine: 10 mM in water, working stock of 9 nM (3×), and final concentration in assay is 3 nM. This is used after the preincubation with test compounds. Addition of the EC20 Acetylcholine to each well with a test compound will ascertain any modulator activity. 24 wells contain 3 nM Acetylcholine alone as a control.
Determining Activity of Putative Compounds:
Screening Plate Compounds are titrated in 96-well plates (columns 2-11), 100% DMSO, started at a concentration of 15 mM (150× stock concentration), and 3-fold serial dilutions using Genesis Freedom200 System. Four 96-well plates are combined into a 384-well plate using Mosquito Nanoliter Pipetting System by transferring 1 μl of serial diluted compounds to each well, and 1 mM acetylcholine (100× stock concentration) were added as a control. Using Temo, 49 μl assay buffer is added to each well of the 384-well plate right before assay.
In a 96-well Whatman 2 ml Uniplate, 9 nM Acetylcholine (3×) is pipetted into wells corresponding to the screening compounds, and into control wells. The 30 μM acetylcholine control (3×) is added into control wells, and the 3× agonist plate is transferred into a 384 well plate.
Cells are washed three times with 100 μL of buffer, leaving 30 μL of buffer in each well. Using Multimek, 30 μL of Dye Loading Buffer is added into each well and incubated at 37° C., 5% CO2 for up to one hr.
After 60 min, the cells are washed three times with 100 μL of buffer, leaving 30 μL of buffer in each well. The cell plate, screening plate, and agonist addition plates are placed on the platform in the FLIPR and the door closed. A signal test to check background fluorescence and basal fluorescence signal is performed. Laser intensity is adjusted if necessary. […]

Row | SMILES | EC50 [nM]
1 | CN1CN([C@H]2CCOC[C@@H]2O)C(=O)c2cc(Cc3ccc(Cl)nc3)c3ccccc3c21 [Example 2, 1,5-Anhydro-3-{6-[(6-chloropyridin-3-yl)methyl]-1-methyl-4-oxo-1,4-dihydrobenzo[h]quinazolin-3(2H)-yl}-2,3-dideoxy-L-threo-pentitol] | 6.3
2 | Cc1ccc(Cc2cc3c(c4ccccc24)N(C)CN([C@H]2CCCC[C@@H]2O)C3=O)cn1 [Example 4, 3-[(1S,2S)-2-Hydroxycyclohexyl]-1-methyl-6-[(6-methylpyridin-3-yl)methyl]-2,3-dihydrobenzo[h]quinazolin-4(1H)-one] | 4
3 | Cn1ccc2c(Cc3cc4c(c5ccccc35)NCN([C@H]3CCOC[C@@H]3O)C4=O)cccc21 [Example 1, 1,5-Anhydro-2,3-dideoxy-3-{6-[(1-methyl-1H-indol-4-yl)methyl]-4-oxo-1,4-dihydrobenzo[h]quinazolin-3 (2H)-yl}-L-threo-pentitol] | 15
4 | CSc1ccc(Cc2cc3c(c4ccccc24)NCN([C@H]2CCOC[C@@H]2O)C3=O)cn1 [Example 3, 1,5-Anhydro-2,3-dideoxy-3-[6-{[6-(methylsulfanyl)pyridin-3-yl]methyl}-4-oxo-1,4-dihydrobenzo[h]quinazolin-3(2H)-yl]-L-threo-pentitol] | 11.5

The next lines start with the values.

Row | EC50 [nM] | SMILES
5 | 2.7 | CN1CN([C@H]2CCOC[C@@H]2O)C(=O)c2cc(Cc3ccnc(CF)c3)c3ccccc3c21 [Example 6, 1,5-Anhydro-2,3-dideoxy-3-[6-{[2-(fluoromethyl)pyridin-4-yl]methyl}-1-methyl-4-oxo-1,4-dihydrobenzo[h]quinazolin-3 (2H)-yl]-L-threo-pentitol]
6 | 2.6 | CN1CN([C@H]2CCOC[C@@H]2O)C(=O)c2cc(Cc3ccnc(C(F)F)c3)c3ccccc3c21 [Example 7, 1,5-anhydro-2,3-dideoxy-3-[6-{[2-(difluoromethyl)pyridin-4-yl]methyl}-1-methyl-4-oxo-1,4-dihydrobenzo[h]quinazolin-3(2H)-yl]-L-threo-pentitol]
7 | 1170 | CCCN1CN([C@H]2CCCC[C@@H]2O)C(=O)c2cc(Cc3ccc(C)nc3)c3ccccc3c21 [Example 5, 3-[(1S,2S)-2-Hydroxycyclohexyl]-6-[(6-methylpyridin-3-yl)methyl]-1-propyl-2,3-dihydrobenzo[h]quinazolin-4(1H)-one]
